This note sets out measurements from patent US7235572B2, “Thiazolyl-indole derivatives, their manufacture and use as pharmaceutical agents” (Hoffman-La Roche Inc., priority 2003, dated 2007).

As usually defined, the IC50 is the concentration that inhibits the measured activity by half. Read a high IC50 as a need for much substance. The melting point is the temperature of the solid-liquid transition.

The target in one data set is T1, PPARδ (Homo sapiens, UniProt Q03181).
T1 construct: PPARδ (aa 139 to 442); made in house; host or cells: E. coli BL21 (pLysS)
T1 sequence (Q03181 139-441 limits assumed): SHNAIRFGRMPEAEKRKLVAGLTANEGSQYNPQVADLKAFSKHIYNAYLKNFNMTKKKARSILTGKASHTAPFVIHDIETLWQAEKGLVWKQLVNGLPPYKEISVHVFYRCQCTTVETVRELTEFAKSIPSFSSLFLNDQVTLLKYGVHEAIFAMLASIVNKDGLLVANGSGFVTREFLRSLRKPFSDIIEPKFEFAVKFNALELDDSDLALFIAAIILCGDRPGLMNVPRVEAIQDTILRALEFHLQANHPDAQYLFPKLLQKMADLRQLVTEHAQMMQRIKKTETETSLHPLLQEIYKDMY
As to the kind of experiment: PPARδ radioligand binding assay (scintillation proximity, GST-PPARδ-LBD). The conditions noted are these: SPA radioligand binding. The source says:
(§1) Background information on the performed assays can be found in: Nichols J S et al. “Development of a scintillation proximity assay for peroxisome proliferator-activated receptor gamma ligand binding domain”, (1998) Anal. Biochem. 257: 112–119.
(§2) Full-length cDNA clones for humans PPARδ and PPARα and mouse PPARγ were obtained by RT-PCR from human adipose and mouse liver cRNA, respectively, cloned into plasmid vectors and verified by DNA sequencing. Bacterial and mammalian expression vectors were constructed to produce glutathione-s-transferase (GST) and Gal4 DNA binding domain proteins fused to the ligand binding domains (LBD) of PPARδ (aa 139 to 442), PPARγ (aa 174 to 476) and PPARα (aa 167 to 469). To accomplish this, the portions of the cloned sequences encoding the LBDs were amplified from the full-length clones by PCR and then subcloned into the plasmid vectors. Final clones were verified by DNA sequence analysis. […]
PPARδ receptor binding was assayed in HNM10 (50 mM Hepes, pH 7.4, 10 mM NaCl, 5 mM MgCl2, 0.15 mg/ml fatty acid-free BSA and 15 mM DTT). […] Radioligand was added and the reaction incubated at RT for 1 h and scintillation proximity counting performed in the presence of test compounds was determined. All binding assays were performed in 96 well plates and the amount of bound ligand was measured on a Packard TopCount using OptiPlates (Packard). […]

A further data set concerns the target T2, PPARγ (Mus musculus, UniProt P37238).
T2 construct: PPARγ (aa 174 to 476); made in house; host or cells: E. coli BL21 (pLysS)
T2 sequence (P37238 204-505): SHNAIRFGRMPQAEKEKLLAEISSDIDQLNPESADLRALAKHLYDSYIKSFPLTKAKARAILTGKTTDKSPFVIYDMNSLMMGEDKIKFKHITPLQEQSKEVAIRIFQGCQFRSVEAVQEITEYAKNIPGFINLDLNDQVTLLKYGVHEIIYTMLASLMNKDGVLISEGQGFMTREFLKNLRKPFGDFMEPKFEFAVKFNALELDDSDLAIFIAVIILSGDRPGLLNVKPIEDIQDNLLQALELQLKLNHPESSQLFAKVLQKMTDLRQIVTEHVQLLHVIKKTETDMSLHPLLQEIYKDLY
Nature of the data set: PPARγ radioligand binding assay (scintillation proximity, GST-PPARγ-LBD). Conditions: SPA radioligand binding.
Excerpt: as §1, §2
PPARγ receptor binding was assayed in TKE50 (50 mM Tris-HCl, pH 8, 50 mM KCl, 2 mM EDTA, 0.1 mg/ml fatty acid-free BSA and 10 mM DTT). […] All binding assays were performed in 96 well plates and the amount of bound ligand measured on a Packard TopCount using OptiPlates (Packard). Nonspecific binding was determined in the presence of 10^−4 M unlabelled compound. […]
On the technique in general: SPA uses beads or plates that emit light when radiolabelled molecules are held near them.

A further data set concerns the target T3, PPARα (Homo sapiens, UniProt Q07869).
T3 construct: PPARα (aa 167 to 469); made in house; host or cells: E. coli BL21 (pLysS)
T3 sequence (Q07869 167-468 limits assumed): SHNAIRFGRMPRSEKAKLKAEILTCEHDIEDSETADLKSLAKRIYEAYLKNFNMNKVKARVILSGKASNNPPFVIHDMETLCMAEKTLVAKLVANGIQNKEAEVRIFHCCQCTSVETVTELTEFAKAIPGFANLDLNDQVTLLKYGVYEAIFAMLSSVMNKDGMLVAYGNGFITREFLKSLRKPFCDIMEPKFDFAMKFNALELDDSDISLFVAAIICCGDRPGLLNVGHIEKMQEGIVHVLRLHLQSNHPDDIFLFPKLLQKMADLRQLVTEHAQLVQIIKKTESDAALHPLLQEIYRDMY
Nature of the data set: PPARα radioligand binding assay (scintillation proximity, GST-PPARα-LBD). The conditions noted are these: SPA radioligand binding.
Excerpt: as §1, §2
PPARα receptor binding was assayed in TKE50 (50 mM Tris-HCl, pH 8, 50 mM KCl, 2 mM EDTA, 0.1 mg/ml fatty acid-free BSA and 10 mM DTT). […] All binding assays were performed in 96 well plates and the amount of bound ligand measured on a Packard TopCount using OptiPlates (Packard). Nonspecific binding was determined in the presence of 10^−4 M unlabelled compound. […]

Structures are written as SMILES. Bounds are passed on as bounds.

As to `Cc1nc(-c2ccc(C(F)(F)F)cc2)sc1C(C)Oc1ccc2ccn(CC(=O)O)c2c1` (racemic) [Example 2, [rac]-(6-{1-[4-methyl-2-(4-trifluoromethyl-phenyl)-thiazol-5-yl]-ethoxy}-indol-1-yl)-acetic acid], the figures for the IC50 on PPARδ, at PPARγ and at PPARα were 24 nM, no less than 10000 nM and 2230 nM, respectively.

Take `Cc1nc(-c2ccc(C(F)(F)F)cc2)sc1CCCOc1cccc2c1ccn2CC(=O)O` [Example 8, (4-{3-[4-methyl-2-(4-trifluoromethyl-phenyl)-thiazol-5-yl]-propoxy}-indol-1-yl)-acetic acid]: the figures for the IC50 at PPARδ, on PPARγ and at PPARα were 42 nM, no less than 10000 nM and 227 nM, respectively.

`Cc1nc(-c2ccc(C(F)(F)F)cc2)sc1COc1ccc2c(c1)cc(C)n2CC(=O)O` [Example 32, {2-methyl-5-[4-methyl-2-(4-trifluoromethyl-phenyl)-thiazol-5-ylmethoxy]-indol-1-yl}-acetic acid]: the melting point is 187 to 188 °C (dec.).
